Our source for the inhibition values is ChEMBL document CHEMBL1777668, “Structure-activity relationship of cyclic thiacarbocyanine tau aggregation inhibitors” (Bioorg Med Chem Lett, 2011).

SMILES strings stand for the structures. Active and inactive are the calls of the source. No cut-off for these calls is given here.

The species named for test [1] is Homo sapiens. Put plainly: Inhibition of octadecyl sulfate-induced recombinant human tau 2N4R aggregation at 1 uM by electron microscopy.
The species entered for test [2] is Homo sapiens. The test can be described thus: Inhibition of octadecyl sulfate-induced recombinant human tau 2N4R aggregation at 10 uM by electron microscopy.

`C1=C2\Sc3ccccc3N2CCC[n+]2c(sc3ccccc32)/C=C/C=C2\Sc3ccccc3N2CCC[n+]2c(sc3ccccc32)/C=C/1`: in the test filed under Homo sapiens [1], the inhibition result was “inactive”. For the same compound, the inhibition entry in the test filed under Homo sapiens [2] was “Active”.

In the case of `C1=C2\Sc3ccccc3N2CCCCCC[n+]2c(sc3ccccc32)/C=C/C=C2\Sc3ccccc3N2CCCCCC[n+]2c(sc3ccccc32)/C=C/1`, the inhibition entry in the test listed under Homo sapiens [2] is “Active”.

With `C1=C2\Sc3ccccc3N2CCCC[n+]2c(sc3ccccc32)/C=C/C=C2\Sc3ccccc3N2CCCC[n+]2c(sc3ccccc32)/C=C/1`, the inhibition entry in the test listed under Homo sapiens [1] and in the test filed under Homo sapiens [2] was “Active” each time.

As to `C1=C2\Sc3ccccc3N2CCCCCCC[n+]2c(sc3ccccc32)/C=C/C=C2\Sc3ccccc3N2CCCCCCC[n+]2c(sc3ccccc32)/C=C/1`, in the test filed under Homo sapiens [2], the inhibition result is “Active”.

As for `C1=C2\Sc3ccccc3N2CCCCC[n+]2c(sc3ccccc32)/C=C/C=C2\Sc3ccccc3N2CCCCC[n+]2c(sc3ccccc32)/C=C/1`, the inhibition entry in the test filed under Homo sapiens [2] was “Active”.

With `C1=C2\Sc3ccccc3N2CCCCCCCC[n+]2c(sc3ccccc32)/C=C/C=C2\Sc3ccccc3N2CCCCCCCC[n+]2c(sc3ccccc32)/C=C/1`, in the test filed under Homo sapiens [2], the inhibition entry is “Active”.
